# What was measured:
# [1] = target: T1, Peroxisome proliferator-activated receptor gamma (Homo sapiens, UniProt P37231); assay: Agonist activity at PPARgamma (unknown origin)
# T1 sequence (P37231 whole entry): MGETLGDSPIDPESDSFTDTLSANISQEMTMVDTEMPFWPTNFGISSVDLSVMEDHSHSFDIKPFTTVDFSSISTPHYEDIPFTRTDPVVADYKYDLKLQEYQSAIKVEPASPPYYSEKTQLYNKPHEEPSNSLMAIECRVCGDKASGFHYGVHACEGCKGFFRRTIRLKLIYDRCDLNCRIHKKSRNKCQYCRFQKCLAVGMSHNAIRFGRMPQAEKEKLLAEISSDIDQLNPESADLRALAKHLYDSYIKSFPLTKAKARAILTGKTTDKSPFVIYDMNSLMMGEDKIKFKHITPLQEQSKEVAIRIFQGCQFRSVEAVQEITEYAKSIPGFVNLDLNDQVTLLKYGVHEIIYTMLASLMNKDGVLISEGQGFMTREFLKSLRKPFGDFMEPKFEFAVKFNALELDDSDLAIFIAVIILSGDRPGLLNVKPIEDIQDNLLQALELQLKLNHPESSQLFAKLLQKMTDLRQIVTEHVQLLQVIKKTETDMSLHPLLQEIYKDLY
# [2] = target: T2, Peroxisome proliferator-activated receptor delta (Homo sapiens, UniProt Q03181); assay: Agonist activity at PPARdelta (unknown origin)
# T2 sequence (Q03181 whole entry): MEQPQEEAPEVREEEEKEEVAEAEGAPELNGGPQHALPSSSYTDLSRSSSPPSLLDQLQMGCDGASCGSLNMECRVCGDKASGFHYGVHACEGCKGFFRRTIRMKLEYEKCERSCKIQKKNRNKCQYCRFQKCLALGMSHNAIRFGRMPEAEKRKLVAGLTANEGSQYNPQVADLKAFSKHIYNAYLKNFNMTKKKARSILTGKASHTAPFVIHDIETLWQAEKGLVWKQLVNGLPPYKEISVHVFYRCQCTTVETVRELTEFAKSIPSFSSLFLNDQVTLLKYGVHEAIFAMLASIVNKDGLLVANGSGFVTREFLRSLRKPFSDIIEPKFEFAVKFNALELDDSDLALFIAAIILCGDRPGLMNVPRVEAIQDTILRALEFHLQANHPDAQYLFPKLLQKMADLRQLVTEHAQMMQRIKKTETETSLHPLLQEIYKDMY
# [3] = target: T3, Peroxisome proliferator-activated receptor gamma (Homo sapiens) (UniProt P37231); conditions: filed as agonist, dose 10.0 nM
# T3 sequence (whole entry): T1 sequence (P37231 whole entry)
# [4] = target: T4, Peroxisome proliferator-activated receptor delta (Homo sapiens) (UniProt Q03181); conditions: filed as agonist, dose 10.0 nM
# T4 sequence (whole entry): T2 sequence (Q03181 whole entry)
# [5] = target: T5, Peroxisome proliferator-activated receptor alpha (Homo sapiens) (UniProt Q07869); conditions: filed as agonist, dose 10.0 nM
# T5 sequence (whole entry): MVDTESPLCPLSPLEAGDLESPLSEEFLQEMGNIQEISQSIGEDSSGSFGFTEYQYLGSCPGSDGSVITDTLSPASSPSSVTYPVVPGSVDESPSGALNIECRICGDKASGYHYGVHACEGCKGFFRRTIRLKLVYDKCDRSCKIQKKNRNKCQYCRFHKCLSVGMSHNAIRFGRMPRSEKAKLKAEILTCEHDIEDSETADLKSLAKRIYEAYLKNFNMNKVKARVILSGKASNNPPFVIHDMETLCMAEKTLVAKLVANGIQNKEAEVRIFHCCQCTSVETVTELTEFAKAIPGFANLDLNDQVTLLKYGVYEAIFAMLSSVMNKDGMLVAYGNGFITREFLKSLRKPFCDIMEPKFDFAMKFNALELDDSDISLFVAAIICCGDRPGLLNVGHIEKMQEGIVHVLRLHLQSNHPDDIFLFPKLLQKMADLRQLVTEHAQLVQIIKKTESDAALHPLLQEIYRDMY
# Description: Agonist activity at PPARalpha (unknown origin) assessed as maximal activation at 10 nM relative to GW7647
# [6] = target: T6, Peroxisome proliferator-activated receptor alpha (Homo sapiens, UniProt Q07869); assay: Agonist activity at PPARalpha (unknown origin)
# T6 sequence (Q07869 whole entry): T5 sequence (whole entry)
# [7] = Microsomal stability in human liver microsomes assessed as terminal elimination half life at 1 uM measured upto 60 mins by LC-MS/MS-11 analysis; assay type: ADME, Microsome
# [8] = Intrinsic clearance in human liver microsomes at 1 uM measured upto 60 mins by LC-MS/MS-11 analysis; assay type: ADME, Microsome; conditions: read-out: CLH
# [9] = target: T4, Peroxisome proliferator-activated receptor delta (Homo sapiens); assay: Agonist activity at PPARdelta (unknown origin) assessed as maximal activation at 10 nM relative to control; conditions: filed as agonist
# [10] = target: T3, Peroxisome proliferator-activated receptor gamma (Homo sapiens); assay: Agonist activity at PPARgamma (unknown origin) assessed as maximal activation at 10 nM relative to control; conditions: filed as agonist
# [11] = target: T5, Peroxisome proliferator-activated receptor alpha (Homo sapiens); assay: Agonist activity at PPARalpha (unknown origin) assessed as maximal activation at 10 nM relative to control; conditions: filed as agonist
Structure (SMILES),EC50 [1],EC50 [2],Emax [3],Emax [4],Emax [5],EC50 [6],further results
Cc1cc(Cn2ncn(-c3ccc(S(C)(=O)=O)cc3)c2=O)cc(C)c1OC(C)(C)C(=O)O,> 5 µM,> 5000 nM,,,,,
Cc1cc(Cn2ncn(-c3ccc(OC(F)(F)F)cc3)c2=O)ccc1OC(C)(C)C(=O)O,,,110%,97%,141%,,
CC(C)(Oc1ccc(Cn2ncn(-c3ccc(OC(F)(F)F)cc3)c2=O)cc1F)C(=O)O,> 5 µM,,,105%,102%,,
Cc1cc(-n2ncn(-c3ccc(C(F)(F)F)cc3)c2=O)cc(C)c1OC(C)(C)C(=O)O,> 5 µM,> 5000 nM,,,,> 5000 nM,
Cc1cc(Cn2ncn(-c3ccc(Br)cc3)c2=O)cc(C)c1OC(C)(C)C(=O)O,,21.6 nM,,,,,half-life at 1 µM [7]: > 120 min; CLint scaled at 1 µM [8]: 1.45 mL/min/kg
Cc1cc(Cn2ncn(-c3ccc(C#N)cc3)c2=O)cc(C)c1OC(C)(C)C(=O)O,> 5 µM,> 5000 nM,,,,> 5000 nM,
CC(C)(Oc1ccc(Cn2ncn(-c3ccc(OC(F)(F)F)cc3)c2=O)cc1Cl)C(=O)O,,,67%,95%,111%,,
Cc1cc(CCCn2ncn(-c3ccc(C(F)(F)F)cc3)c2=O)cc(C)c1OC(C)(C)C(=O)O,> 5 µM,,,72%,78%,,
Cc1cc(Cn2ncn(-c3ccc(C(F)(F)F)cc3)c2=O)cc(Cl)c1OC(C)(C)C(=O)O,,14.7 nM,76%,81%,162%,8.6 nM,half-life at 1 µM [7]: > 120 min; CLint scaled at 1 µM [8]: 3.96 mL/min/kg
CC(C)(Oc1c(F)cc(Cn2ncn(-c3ccc(OC(F)(F)F)cc3)c2=O)cc1F)C(=O)O,> 5 µM,,,113%,99%,,
Cc1cc(Cn2ncn(-c3ccccc3C(F)(F)F)c2=O)cc(C)c1OC(C)(C)C(=O)O,3.79 µM,> 5000 nM,84%,,,> 5000 nM,
CCc1cc(Cn2ncn(-c3ccc(OC(F)(F)F)cc3)c2=O)cc(CC)c1OC(C)(C)C(=O)O,3.09 µM,,125%,74%,129%,44.4 nM,
CC(C)(Oc1ccc(Cn2ncn(-c3ccc(OC(F)(F)F)cc3)c2=O)cc1OC(F)(F)F)C(=O)O,,,70%,160%,130%,,
CC(C)(Oc1ccc(Cn2ncn(-c3ccc(C(F)(F)F)cc3)c2=O)cc1Cl)C(=O)O,,,99%,97%,150%,,
O=C(O)CCCc1cc2cc(Cl)ccc2n1S(=O)(=O)c1ccc2ncsc2c1 [LANIFIBRANOR],0.559 µM,2960 nM,,,,3060 nM,Emax [9]: 89%; Emax [10]: 119%; Emax [11]: 65%
CCc1cc(Cn2ncn(-c3ccc(C(F)(F)F)cc3)c2=O)cc(CC)c1OC(C)(C)C(=O)O,,,,,,59.1 nM,
CSc1ccc(C(=O)/C=C/c2cc(C)c(OC(C)(C)C(=O)O)c(C)c2)cc1 [ELAFIBRANOR],,,,,,,Emax [9]: 52%; Emax [10]: 115%; Emax [11]: 82%; half-life at 1 µM [7]: > 120 min; CLint scaled at 1 µM [8]: 116 mL/min/kg
CCc1ccc(-n2cnn(Cc3cc(C)c(OC(C)(C)C(=O)O)c(C)c3)c2=O)cc1,,,149%,99%,98%,14.2 nM,half-life at 1 µM [7]: > 120 min; CLint scaled at 1 µM [8]: 4.68 mL/min/kg

Structure (SMILES),EC50 [1],EC50 [2],Emax [3],Emax [4],Emax [5],EC50 [6],further results
Cc1cc(Cn2ncn(-c3ccc(OC(F)(F)F)cc3)c2=O)cc(C(F)(F)F)c1OC(C)(C)C(=O)O,,5.6 nM,,,,,half-life at 1 µM [7]: > 120 min; CLint scaled at 1 µM [8]: 0.09 mL/min/kg
CCOc1ccc(-n2cnn(Cc3cc(C)c(OC(C)(C)C(=O)O)c(C)c3)c2=O)cc1,> 5 µM,,,81%,79%,32.6 nM,
Cc1ccc(-n2cnn(Cc3cc(C)c(OC(C)(C)C(=O)O)c(C)c3)c2=O)cc1,,,87%,87%,114%,,
CC(C)(Oc1ccc(Cn2ncn(-c3ccc(C(F)(F)F)cc3)c2=O)cc1F)C(=O)O,> 5 µM,,,118%,136%,,
Cc1cc(Cn2ncn(-c3ccc(OC(F)(F)F)cc3)c2=O)cc(Cl)c1OC(C)(C)C(=O)O,> 5 µM,28.5 nM,,129%,110%,7.6 nM,
Cc1cc(OCn2ncn(-c3ccc(C(F)(F)F)cc3)c2=O)cc(C)c1OC(C)(C)C(=O)O,> 5 µM,,,72%,69%,,
Cc1cc(Cn2ncn(-c3ccc(C(C)C)cc3)c2=O)cc(C)c1OC(C)(C)C(=O)O,,,,,,7.5 nM,
CC(C)(Oc1ccc(Cn2ncn(-c3ccc(C(F)(F)F)cc3)c2=O)cc1)C(=O)O,> 5 µM,,,,,,
Cc1cc(Cc2cc(-c3ccc(Br)cc3)on2)cc(C)c1OC(C)(C)C(=O)O,2.75 µM,24.2 nM,,,,65.1 nM,Emax [9]: 75%; Emax [10]: 118%; Emax [11]: 135%
CC(C)(Oc1c(F)cc(Cn2ncn(-c3ccc(C(F)(F)F)cc3)c2=O)cc1F)C(=O)O,> 5 µM,,,,,,
Cc1cc(Cn2ncn(-c3ccc(Cl)cc3)c2=O)cc(C)c1OC(C)(C)C(=O)O,,,180%,114%,126%,,
CC(C)(Oc1ccc(Cn2ncn(-c3ccc(OC(F)(F)F)cc3)c2=O)cc1)C(=O)O,> 5 µM,,,71%,109%,,
CC(C)(Oc1c(Cl)cc(Cn2ncn(-c3ccc(OC(F)(F)F)cc3)c2=O)cc1Cl)C(=O)O,> 5 µM,,,118%,153%,6.8 nM,
Cc1cc(Cn2ncn(-c3ccc(C(F)(F)F)cc3)c2=O)cc(C)c1OC(C)(C)C(=O)O,,1.7 nM,,,,,half-life at 1 µM [7]: > 120 min; CLint scaled at 1 µM [8]: 3.6 mL/min/kg
COc1ccc(-n2cnn(Cc3cc(C)c(OC(C)(C)C(=O)O)c(C)c3)c2=O)cc1,,,114%,107%,120%,,
Cc1cc(Cn2ncn(-c3ccccc3)c2=O)cc(C)c1OC(C)(C)C(=O)O,0.865 µM,,,,,,
CC(C)(Oc1c(Cl)cc(Cn2ncn(-c3ccc(C(F)(F)F)cc3)c2=O)cc1Cl)C(=O)O,,,,,,,half-life at 1 µM [7]: > 120 min; CLint scaled at 1 µM [8]: 10.3 mL/min/kg
Cc1cc(Cn2ncn(-c3ccc(C(F)(F)F)cc3)c2=O)cc(C(F)(F)F)c1OC(C)(C)C(=O)O,,1.4 nM,,,,,half-life at 1 µM [7]: > 120 min; CLint scaled at 1 µM [8]: 2.7 mL/min/kg

# Source: ChEMBL document CHEMBL5042526, “Design, Synthesis, and Biological Evaluation of Triazolone Derivatives as Potent PPARα/δ Dual Agonists for the Treatment of Nonalcoholic Steatohepatitis” (J Med Chem, 2022)
